Reference: patent US10400242B2, “Methods for treating acute myeloid leukemia and nanoparticle complexes of miR-22 utilized therein” (University of Cincinnati, priority 2016, dated 2019)

Tests used:
[1] = test system: THP-1 cells; experiment: ATRA-treatment study, gene expression (qPCR) in THP-1 cells; assay type: cell-based, human; conditions: 1 μM ATRA, 72 hours, vs DMSO
Experimental: Total RNA was extracted with the miRNeasy extraction kit (Qiagen, Valencia, Calif.) and was used as template to synthesize cDNA for quantitative RT-PCR (qPCR) analysis in a 7900HT real-time PCR system (Applied Biosystems, Foster City, Calif.). TaqMan qPCR assay was performed to validate the differential expression patterns of miR-22 using commercial kits from Applied Biosystems (Cat. #4427975). Sequences for the controls are: sno202: 5′-[…]-3′ (SEQ ID NO: 1); RNU6B: 5′-[…]-3′ (SEQ ID NO: 4). qPCR with SYBR Green dye (Qiagen) was used to determine expression of mRNA genes. snoRNA202, RNU48, Gapdh or GAPDH were used as endogenous controls for qPCR of miRNA and mRNA, respectively. Each sample was run in triplicate. qPCR primers are available upon request. For determining the miR-22 DNA locus copy number, TaqMan qPCR assay was used as described previously^57.
(§1) For the ATRA-treatment study, THP-1 cells were seeded at a concentration of 0.4×10^6/mL and treated with ATRA (1 μmol/L) or vehicle control (DMSO, 0.001%) for 72 hours before cells were collected for RNA analysis or CUP assays.

[2] = test system: miR-22 promoter region; experiment: ChIP-qPCR of miR-22 promoter region in ATRA-treated THP-1 cells; assay type: cell-based, human; conditions: 1 μM ATRA, 72 hours
Experimental: as §1
ChIP assay was performed, as described previously^14, 17, with SABiosciences Corporation's ChampionChiP™ One-Day kit (Qiagen, Frederick, Md.) following the manufacturer's protocol, with some modifications. Briefly, pellets of 5×10^6 cells were treated with fresh fixing buffer (1% formaldehyde) for 10 min at 37° C. to crosslink DNA and proteins. The reaction was terminated by the addition of stop buffer and incubated at room temperature for 5 min. After cell lysis, the cross-linked chromatin was sonicated to an average size of ˜500 bp and was immunoprecipitated with antibodies against TET1, GFI1 (Santa Cruz Biotechnology Inc., Santa Cruz, Calif.), the N′-terminal portion of MLL (MLL-N), the C′-terminal of MLL (MLL-C), H3K27Me3, H3K4Me3, RNA polymerase II, EZH2, SIN3A or IgG (Abcam, Cambridge, Mass.). Purified ChIP DNA was amplified by real-time qPCR using specific primers targeting the CpG-enriched upstream region of human miR-22: Forward: 5′-GTT GTT GGA GTC GTG AGT G-3′ (SEQ ID NO: 15); reverse: 5′-CGC TCC ACC TTT CCT TAA A-3′ (SEQ ID NO: 16); or mouse miR-22: Forward: 5′-TGA ATG GGC GGG AGT AA-3′ (SEQ ID NO: 17); reverse: 5′-CCAC GAG CTG CGA ATG AA-3′ (SEQ ID NO: 18).

[3] = test system: miR-22 promoter; experiment: Bisulfite sequencing of miR-22 promoter in ATRA-treated THP-1 cells; assay type: cell-based, human; conditions: 1 μM ATRA or DMSO, 72 hrs
[4] = test system: MONOMAC-6 cells; experiment: Cellular uptake of dendrimers in MONOMAC-6 cells; assay type: cell-based, human
Source text: (§2) In order to selectively deliver miR-22 oligos to FLT3-expressing AML cells, Poly(amidoamine) (PAMAM) dendrimers (Hong S, et al. Bioconjugate Chemistry. 2006; 17:728-34, Hong S, et al. Bioconjugate Chemistry. 2009; 20:1503-13, and Sunoqrot S, et al. J Control Release. 2014; 191:115-22, incorporated herein by reference) are selected as the basis of the nanoparticle carriers, and conjugated with the near-infrared dye Cyanine 5.5 (Cy5.5) for monitoring the dynamic distributions of the nanoparticles, and FLT3 ligand (FLT3L) proteins for specific targeting FLT3 on the cell surface. H2B, a nuclear histone protein with similar molecular weight as FLT3L, was conjugated as a negative control. G7-FLT3L dendrimers will efficiently and selectively target AML cells with FLT3 overexpression.

[5] = test system: U937 cells; experiment: Cellular uptake of dendrimers in U937 cells; assay type: cell-based; conditions: U937 cells (very low levels of FLT)
Source text: as §2

[6] = test system: MONOMAC-6 cells; experiment: Viability and apoptosis of MONOMAC-6 cells treated with dendrimers; assay type: cell-based, human; conditions: compared with PBS

Molecule	WDR81 level [1]	expression of TET1, EZH2 and SIN3A [1]	expression of TET2 or TET3 (down-regulation) [1]	increase in miR-22 expression level [1]	transcription level of GFI1 [1]	H3K4Me3 modifications at miR-22 promoter region [2]	H3K27me3 modifications at miR-22 promoter region [2]	RNA polymerase II occupancy at miR-22 promoter region [2]	binding of GFI1, TET1, EZH2 and SIN3A to the miR-22 promoter region [2]	binding of MLL protein to the miR-22 promoter region (reduction) [2]	methylation status of the miR-22 promoter [3]	one-hour uptake ratio ([4]; FLT3-overexpressing AML cells, one hour) [%]	uptake ratio after suppression of endogenous FLT3 expression ([4]; MONOMAC-6 cells overexpressing miR-22)	uptake ratio after 24 hours' treatment ([4]; MONOMAC-6 cells, 24 hours, G7-FLT3L vs G7-H2B control)	uptake ratios, G7-FLT3L vs G7-H2B [5]	viability and apoptosis (cytotoxicity) [6]
CC1=C(/C=C/C(C)=C/C=C/C(C)=C/C(=O)O)C(C)(C)CCC1 [ATRA, all-trans-retinoic acid]	no significant effects	significantly down-regulated	not	more than 5 fold	substantially reduced	no significant change	significantly decreased	increased	remarkably reduced	not	hypomethylated	–	–	–	–	–
G7-FLT3L dendrimers: FLT3L-conjugated Generation 7 (G7) PAMAM dendrimers, Cy5.5-labelled, targeting FLT3 on AML cells (conjugate) TQDCSFQHSPISSDFAVKIRELSDYLLQDYPVTVASNLQDEELCGGLWRLVLAQRWMERLKTVAGSKMQGLLERVNTEIHFVTKCAFQPPPSCLRFVQTNISRLLQETSEQLVALKPWITRQNFSRCLELQCQPDSSTLPPPWSPRPLEATAPTA	–	–	–	–	–	–	–	–	–	–	–	23.6	significant decrease	significantly higher	no significant difference	low, if any, cytotoxicity
